In article PMC8713287, “Synthesis and Cytotoxic Activity of Lepidilines A–D: Comparison with Some 4,5-Diphenyl Analogues and Related Imidazole-2-thiones” (Journal of Natural Products, 2021):
Where a name gives a salt, the structure may show the parent alone. Each block holds one compound with its values, some of them ahead of it.

How the values were obtained:
[1] = test system: promyelocytic leukemia HL-60; test: MTT cytotoxicity assay, HL-60; format: cell-based, human; conditions: for IC50: MTT, 48 h incubation, mean ± SEM; for HUVEC/HL-60 IC50 ratio: normal HUVEC vs HL-60
Protocol: (§1) Potential biological activity of all four lepidilines A–D (1a–1d), as well as their 4,5-diphenyl analogues 6a[PF6], 6c[PF6], and 6d[PF6] (as hexafluorophosphate salts) and a series of imidazole-2-thiones 7 and 8 obtained therefrom, was evaluated in vitro against two human cancer cell lines: promyelocytic leukemia HL-60 and breast cancer adenocarcinoma MCF-7. Selected analogues were also tested against human umbilical vein endothelial cells (HUVECs) using the MTT cytotoxicity assay. Concentration–response analysis was performed to determine drug concentrations required to inhibit the growth of cells by 50% (IC50) after 48 h of incubation.
(§2) Human promyelocytic leukemia (HL-60) and human breast cancer adenocarcinoma (MCF-7) cell lines were obtained from the European Collection of Cell Cultures, while HUVECs were purchased from the American Type Culture Collection. HL-60 cells were cultured in RPMI 1640 plus GlutaMax I medium (Gibco/Life Technologies, Carlsbad, CA, USA). MCF-7 cells were maintained in minimum essential medium Eagle (Sigma-Aldrich, St. Louis, MO, USA) supplemented with 2 mM glutamine and Men nonessential amino acid solution (Sigma-Aldrich). Both media were supplemented with 10% heat-inactivated fetal bovine serum (Biological Industries, Beit-Haemek, Israel) and antibiotics (100 U/mL penicillin and 100 μg/mL streptomycin) (Sigma-Aldrich). HUVEC cells were grown in EGM-2 endothelial medium BulletKit (Lonza, Basel, Switzerland). Cells were maintained at 37 °C in a 5% CO2 atmosphere and were grown until 80% confluent.
(§3) The tested compounds were dissolved in sterile dimethyl sulfoxide (DMSO) and further diluted with culture medium. The final concentration of DMSO in cell cultures was less than 0.1% v/v. Controls without and with 0.1% DMSO were performed in each experiment.
(§4) The MTT assay was performed according to the known procedure.[30] The cells were incubated with the analogues for 48 h. The absorbance of the blue formazan product was measured at 560 nm using a FlexStation 3 multi-mode microplate reader (Molecular Devices, LLC, CA, USA) and compared with control (untreated cells). All experiments were performed in triplicate.

[2] = test system: breast cancer adenocarcinoma MCF-7; test: MTT cytotoxicity assay, MCF-7; format: cell-based, human; conditions: mean ± SEM
Protocol: as §1, §2, §3, §4

[3] = test system: eight human cancer cell lines; set-up: method as in PMID 12932133; conditions: inactive against all those cell lines; cited from earlier work
[4] = test system: human umbilical vein endothelial cells (HUVECs); test: MTT cytotoxicity assay, HUVEC; format: cell-based; conditions: 48 h incubation, normal cells, mean ± SEM
Protocol: as §1, §2, §3, §4

breast carcinoma MDA-231 = test system: breast carcinoma MDA-231; set-up: method as in PMID 12932133; conditions: cited from earlier work
[5] = test system: pancreatic adenocarcinoma PACA2; set-up: method as in PMID 12932133; conditions: cited from earlier work
[6] = Homo sapiens, MCF7, 48 h incubation

melting point: 102 to 104 °C
Compound: COc1cccc(C[n+]2cn(Cc3ccccc3)c(C)c2C)c1 (as salt: phosphate) [1c[PF6], 1-Benzyl-3-(3-methoxybenzyl)-4,5-dimethylimidazolium hexafluorophosphate]

melting point: 129 to 131 °C
Compound: c1ccc(Cn2c[n+](Cc3ccccc3)c(-c3ccccc3)c2-c2ccccc2)cc1 (as salt: phosphate) [6a[PF6], 1,3-Dibenzyl-4,5-diphenylimidazolium hexafluorophosphate]

melting point: 78 to 81 °C
Compound: COc1cccc(C[n+]2cn(Cc3ccccc3)c(-c3ccccc3)c2-c2ccccc2)c1 (as salt: phosphate) [6c[PF6], 1-Benzyl-3-(3-methoxybenzyl)-4,5-diphenylimidazolium hexafluorophosphate]

Compound: COc1cccc(C[n+]2c(-c3ccccc3)c(-c3ccccc3)n(Cc3ccccc3)c2C)c1 (as salt: phosphate) [6d[PF6], 1-Benzyl-3-(3-methoxybenzyl)-2-methyl-4,5-diphenylimidazolium hexafluorophosphate]
melting point: 175 to 177 °C

Compound: Cc1c(C)[n+](Cc2ccccc2)cn1Cc1ccccc1 [1a, 1,3-Dibenzyl-4,5-dimethylimidazolium chloride]
IC50 ([1]; Homo sapiens, HL-60, 48 h): 32.3 ± 3.5 µM | IC50 [2, 6]: > 100 µM | IC50 [3]: > 10 µM | IC50 [4]: > 100 µM

Compound: Cc1c(C)[n+](Cc2ccccc2)cn1Cc1ccccc1 [1a[PF6]] [1,3-Dibenzyl-4,5-dimethylimidazolium hexafluorophosphate]
IC50 [1]: 32 ± 2 µM | IC50 ([2]; 48 h incubation): > 100 µM

melting point: 228 to 229 °C
Compound: Cc1c(C)[n+](Cc2ccccc2)c(C)n1Cc1ccccc1.[Cl-] [1b, 1,3-Dibenzyl-2,4,5-trimethylimidazolium chloride]
IC50 ([1]; Homo sapiens, HL-60, 48 h): 3.8 ± 0.2 µM | IC50 [2, 6]: > 100 µM | IC50 MDA-231 (breast carcinoma MDA-231): 1.66 µg/mL | IC50 (breast carcinoma MDA-231; converted from μg/mL): 5.1 µM | IC50 PACA2 [5]: 1.38 µg/mL | IC50 ([5]; converted from μg/mL): 4.2 µM | IC50 [4]: > 100 µM

melting point: 94 to 96 °C
Compound: COc1cccc(Cn2c[n+](Cc3ccccc3)c(C)c2C)c1.[Cl-] [1c, 1-Benzyl-3-(3-methoxybenzyl)-4,5-dimethylimidazolium chloride]
IC50 ([1]; Homo sapiens, HL-60, 48 h): 27.7 ± 2.5 µM | IC50 [2, 6]: 75 ± 5 µM | IC50 [4]: > 100 µM

Compound: COc1cccc(C[n+]2cn(Cc3ccccc3)c(C)c2C)c1 [1c[PF6], 1-Benzyl-3-(3-methoxybenzyl)-4,5-dimethylimidazolium hexafluorophosphate]
IC50 ([1]; Homo sapiens, HL-60, 48 h): 19.9 ± 0.2 µM | IC50 [2, 6]: 69.9 ± 0.2 µM

melting point: 214 to 216 °C
Compound: COc1cccc(Cn2c(C)c(C)[n+](Cc3ccccc3)c2C)c1.[Cl-] [1d, 1-Benzyl-3-(3-methoxybenzyl)-2,4,5-trimethylimidazolium chloride]
IC50 ([1]; Homo sapiens, HL-60, 48 h): 1.1 ± 0.1 µM | fold more cytotoxic for leukemia (HL-60) than for breast cancer (MCF-7) cells ([1]; MCF-7 vs HL-60): over 100 fold | HUVEC/HL-60 IC50 ratio [1]: over 100 | IC50 [2, 6]: > 100 µM | IC50 [4]: > 100 µM

Compound: c1ccc(Cn2c[n+](Cc3ccccc3)c(-c3ccccc3)c2-c2ccccc2)cc1 [6a[PF6], 1,3-Dibenzyl-4,5-diphenylimidazolium hexafluorophosphate]
IC50 ([1]; Homo sapiens, HL-60, 48 h): 1.2 ± 0.1 µM | IC50 [2, 6]: 8.2 ± 0.2 µM

melting point: 149 to 151 °C
Compound: COc1cccc(C[n+]2cn(Cc3ccccc3)c(-c3ccccc3)c2-c2ccccc2)c1.[Br-] [6c[Br], 1-Benzyl-3-(3-methoxybenzyl)-4,5-diphenylimidazolium bromide]

Compound: COc1cccc(C[n+]2cn(Cc3ccccc3)c(-c3ccccc3)c2-c2ccccc2)c1 [6c[PF6], 1-Benzyl-3-(3-methoxybenzyl)-4,5-diphenylimidazolium hexafluorophosphate]
IC50 ([1]; Homo sapiens, HL-60, 48 h): 1.2 ± 0.2 µM | IC50 [2, 6]: 7.9 ± 0.3 µM | IC50 [4]: 8.8 ± 0.1 µM

Compound: COc1cccc(C[n+]2c(-c3ccccc3)c(-c3ccccc3)n(Cc3ccccc3)c2C)c1 [6d[PF6], 1-Benzyl-3-(3-methoxybenzyl)-2-methyl-4,5-diphenylimidazolium hexafluorophosphate]
IC50 ([1]; Homo sapiens, HL-60, 48 h): 1.2 ± 0.1 µM | IC50 [2, 6]: 6.5 ± 0.2 µM

melting point: 183 to 185 °C
Compound: Cc1c(C)n(Cc2ccccc2)c(=S)n1Cc1ccccc1 [7a, 1,3-Dibenzyl-4,5-dimethylimidazole-2-thione]
IC50 ([1]; Homo sapiens, HL-60, 48 h): > 100 µM | IC50 [2, 6]: > 100 µM

Compound: COc1cccc(Cn2c(C)c(C)n(Cc3ccccc3)c2=S)c1 [7c, 1-(3′-Methoxybenzyl)-3-benzyl-4,5-dimethylimidazole-2-thione]
IC50 ([1]; Homo sapiens, HL-60, 48 h): 20.2 ± 1.9 µM | IC50 [2, 6]: > 100 µM

melting point: 180 to 182 °C
Compound: S=c1n(Cc2ccccc2)c(-c2ccccc2)c(-c2ccccc2)n1Cc1ccccc1 [8a, 1,3-Dibenzyl-4,5-diphenylimidazole-2-thione]
IC50 ([1]; Homo sapiens, HL-60, 48 h): 8.1 ± 0.3 µM | IC50 [2, 6]: > 100 µM

melting point: 52 to 55 °C
Compound: COc1cccc(Cn2c(-c3ccccc3)c(-c3ccccc3)n(Cc3ccccc3)c2=S)c1 [8c, 1-(3′-Methoxybenzyl)-3-benzyl-4,5-diphenylimidazole-2-thione]
IC50 ([1]; Homo sapiens, HL-60, 48 h): 55 ± 5 µM | IC50 [2, 6]: > 100 µM

Compound: COc1cccc2c1C(=O)c1c(O)c3c(c(O)c1C2=O)C[C@@](O)(C(=O)CO)C[C@@H]3O[C@H]1C[C@H](N)[C@H](O)[C@H](C)O1 [DXR, doxorubicin, reference compound]
fold more cytotoxic than lepidiline D ([1]; DXR vs lepidiline D, HL-60): 10 fold | IC50 ([1]; Homo sapiens, HL-60, 48 h): 0.12 ± 0.01 µM | HUVEC/HL-60 IC50 ratio [1]: about 10 | IC50 [2, 6]: 0.9 ± 0.1 µM | IC50 [4]: 1.4 ± 0.1 µM

Compound: c1c[n+](C23CC4CC(CC(C4)C2)C3)cn1C12CC3CC(CC(C3)C1)C2 [compound 9, 1,3-diadamantylimidazolium bromide]
IC50 ([1]; Homo sapiens, HL-60, 48 h): 1.8 ± 0.1 µM | IC50 [2, 6]: 51.5 ± 1.5 µM

Compound: c1c[n+](OC23CC4CC(CC(C4)C2)C3)cn1OC12CC3CC(CC(C3)C1)C2 [compound 10]
IC50 ([1]; Homo sapiens, HL-60, 48 h): 0.3 ± 0.1 µM | IC50 [2, 6]: 4.5 ± 0.1 µM | IC50 [4]: 9.1 ± 0.3 µM
